Marks after values point to notes of the source that are not given here.

For one data set, the target named is T1, CYP3A4 (Homo sapiens, UniProt P08684).
T1 construct: purchased Promega (Madison, WI, USA)
Nature of the data set: Drug-drug interactions, CYP3A4 P450-Glo. Particulars: 10 µM. Format: in vitro ADME. The protocol: To predict potential drug-drug interactions (DDI) effects on three of the most relevant cytochrome P450 (CYP), isoforms CYP3A4, CYP2D6 and CYP2C9 were investigated at a concentration of 10 µM. The results were compared with the effects of 1 µM of the selective inhibitors ketoconazole (CYP3A4), quinidine (CYP2D6) and sulfaphenazole (CYP2C9).
The influence of the tested compounds on recombinant human cytochromes was determined with the use of CYP3A4, CYP2D6 and CYP2C9 P450-Glo™ kits and protocols provided by Promega (Madison, WI, USA). Compounds were tested at a concentration of 10 μM. Reference inhibitors: Ketoconazole (CYP3A4), quinidine (CYP2D6) and sulfaphenazole (CYP2C9) were tested at 1 μM. The luminescent signals were measured using a microplate reader EnSpire PerkinElmer (Waltham, MA, USA).

For another data set, the system named is SH-SY5Y cells. Nature of the data set: Neurotoxicity, MTS cell viability. It is filed as cell-based, human. Particulars: 0.098 μM to 100 μM, 24 h. The protocol:
Drug safety is a critical step in the process of drug development. […] In our studies, neurotoxicity and hepatotoxicity were evaluated in SH-SY5Y and HepG2 cells, respectively. The compounds were tested at 11 concentrations from 0.098 μM to 100 μM (see Figure 5). Cell viability was assessed after incubation for 24 h with the SH-SY5Y line and for 48 h with the HepG2 line.
To evaluate neurotoxicity and hepatotoxicity, the human neuroblastoma cell line SH-SY5Y (ATCC® no. CRL-2266™) and hepatoma cell line HepG2 (ATCC® no. HB-8065™) were used, respectively. The cells (SH-SY5Y: 5 × 10^3 cells/100μL/well and HepG2: 7 × 10^3 cells/100 μL/well) were seeded in transparent 96-well plates (Nunc) in DMEM supplemented with 10% FBS and cultured overnight. The next day, the medium was changed to medium containing dimethylsulfoxide (DMSO < 0.1%, vehicle control) or an increasing concentration of compounds MZ-1483 (19), MZ-1490 (22) and MZ-1495 (24) ([…]–100 × 10^−6 M). To perform dose-response analysis, two-fold serial dilutions (11 points) were prepared. Treatment with compounds was performed for 48 h. After the incubation time, the cell viability was examined using an MTS-based [3-(4,5-dimethylthiazol-2-yl)-5-(3-carboxymethoxyphenyl)-2-(4-sulfophenyl)-2 H tetrazolium] CellTiter96® AQueous One Solution Cell Proliferation Assay (Promega, Madison, WI, USA) following the manufacturer’s protocol. Briefly, 20 μL of MTS solution was pipetted into each well containing 100 μL of culture or culture medium (negative control) and incubated at 37 °C for 1 h. After incubation time, formazan product turnover absorbance was measured at 490 nm using the microplate reader (Tecan Spark®, Tecan Group Ltd., Maennedorf, Switzerland). A reference wavelength of 630 nm was used.

Data set [1] in a line: Precipitation in culture medium seen under inverted microscope. Format: physicochemical. To be noted: 25 μM, 50 μM, 100 μM.
Data set [2] can be described thus: Metabolic stability in human liver microsomes. Format: in vitro ADME. Particulars: for number of metabolites formed: HLMs, 120 min; for remaining at 2 h: human, liver microsomes, after 120 min of incubation with HLMs, read-out: % Remaining in the Reaction Mixture. On the procedure: In our study, the compounds were incubated for 120 min with HLMs, followed by liquid chromatography-mass spectrometry (LC-MS) to identify the formed metabolites.
Human liver microsomes (HLMs) were purchased from Sigma-Aldrich (St. Louis, MO, USA; catalog nr M9066-1VL). The studies with microsomes were supported by MetaSite 6.0.1 software provided by Molecular Discovery Ltd. (Hertfordshire, UK), which allowed for the determination of the most probable sites of metabolism. The compounds were incubated with HLMs for 120 min. After the addition of methanol and centrifugation, the supernatants were analyzed with the Waters ACQUITY™ TQD system (Waters, Milford, CT, USA). All reference drugs used (caffeine, ketoconazole, quinidine and sulfaphenazole) were purchased from Sigma-Aldrich (St. Louis, MO, USA).
In general terms: Microsomes from liver hold many membrane-bound enzymes, among them those of drug oxidation.

The test system of data set [3] is carrageenan-induced paw edema in rats. Nature of the data set: Carrageenan-induced paw edema test. Format: in vivo, Wistar rats. Particulars: 20 mg/kg ip; for Change in Edema Volume 1 h / inhibition of edema, first hour: 1 h; for Change in Edema Volume 2 h / inhibition of edema, second hour: 2 h; for Change in Edema Volume 3 h / inhibition of edema, third hour: 3 h. The protocol:
The carrageenan test is used to evaluate the anti-inflammatory effect, as the injection of this compound into the hind paw of an animal induces long-lasting edema. The aim of the present study was to evaluate the anti-inflammatory (antiedematous) activity of the compounds tested: 19, 22 and 24. The compounds were administered at a dose of 20 mg/kg of body weight (bw).
The in vivo experiments were carried out on male albino Swiss mice weighing 18–26 g and male Wistar rats weighing 150–180 g. The animals were housed in constant temperature facilities exposed to a 12:12 light-dark cycle and maintained on a standard pellet diet and tap water given ad libitum. The control and experimental groups consisted of 6–8 animals each. The investigated compounds were intraperitoneally (ip) administered in the form of a suspension in 0.5% methylcellulose. Control animals received the equivalent volume of solvent. All procedures were conducted according to the guidelines of ICLAS (International Council on Laboratory Animals Science) and were approved by the Local Ethics Committee of the Jagiellonian University in Kraków.
Rats were divided into four groups, one of them being the control. In order to produce inflammation, 0.1 mL of 1% carrageenan solution in water was injected into the hind paw subplantar tissue of rats, according to the modified method of C. A. Winter and P. Lence. […] Prior to the administration of test substances, paw diameters were measured by dividers and recorded. The investigated compounds were administered at a dose of 20 mg/kg, ip (as a suspension in methylcellulose), prior to carrageenan injection. […] After these administrations, paw diameters were measured at 1, 2 and 3 h. The edema % and edema inhibition % were calculated according to the formulas given below. Edema% = (N′ × 100)/N Edema inhibition% = (N – N′ × 100)/N
N: Paw diameters measured 1, 2 and 3 h after injection of carrageenan to the control group—paw diameters at the beginning.
N′: Paw diameters measured 1, 2 and 3 h after injection of carrageenan to the test groups—paw diameters at the beginning.
In general terms: The carrageenan paw model is a standard test of acute inflammation.

T1 sequence (P08684 whole entry): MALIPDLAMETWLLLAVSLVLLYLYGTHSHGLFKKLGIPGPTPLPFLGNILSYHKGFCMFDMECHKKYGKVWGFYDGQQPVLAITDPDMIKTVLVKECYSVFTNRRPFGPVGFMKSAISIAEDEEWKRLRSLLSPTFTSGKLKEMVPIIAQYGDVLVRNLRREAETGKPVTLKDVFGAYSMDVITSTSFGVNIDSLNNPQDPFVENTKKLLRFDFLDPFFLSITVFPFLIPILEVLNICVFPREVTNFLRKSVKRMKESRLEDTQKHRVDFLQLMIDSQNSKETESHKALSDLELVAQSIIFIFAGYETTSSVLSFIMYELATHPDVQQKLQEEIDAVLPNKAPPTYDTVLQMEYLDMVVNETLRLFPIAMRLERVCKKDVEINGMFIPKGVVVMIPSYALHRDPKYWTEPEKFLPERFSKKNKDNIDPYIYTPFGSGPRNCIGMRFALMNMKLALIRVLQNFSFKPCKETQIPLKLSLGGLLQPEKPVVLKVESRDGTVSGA

As a reminder, the share remaining is what is left of the initial amount, in per cent. Turning to `C#CCn1c(=O)c2c(nc(NCc3cccc(Br)c3)n2C)n(C)c1=O` [compound 24, 8-((3-Bromobenzyl)amino)-3,7-dimethyl-1-(prop-2-yn-1-yl)-3,7-dihydro-1H-purine-2,6-dione], the “CYP3A4 activity, % of the control activity” value (“CYP3A4 activity, %” below) on CYP3A4 is recorded as ~ 20%. Besides, the “neurotoxicity, cell viability (in words)” value with SH-SY5Y cells is “high safety profile”. Moreover, the “behaviour in the culture medium at the highest concentrations” value (from here on “behaviour in the culture medium”) in data set [1] was “precipitated and formed crystals in the culture medium”. In data set [2], the “number of metabolites formed” value is “one metabolite” and the fraction remaining at 2 h was over 95%. In data set [3], the “Change in Edema Volume 1 h” value is given as 0.38 ± 0.02 ^a mL; the “inhibition of edema, first hour” value was determined as 51.2%; the “Change in Edema Volume 2 h” value was 0.63 ± 0.14 ^a mL; the “inhibition of edema, second hour” value worked out at 43.8%. In data set [3], the “Change in Edema Volume 3 h” value is 0.69 ± 0.01 ^b mL and the “inhibition of edema, third hour” value stood at 48.1%.

Take `C#CCn1c(=O)c2c(nc(NCc3c(F)cccc3Cl)n2C)n(C)c1=O` [compound 22, 8-((2-Chloro-6-fluorobenzyl)amino)-3,7-dimethyl-1-(prop-2-yn-1-yl)-3,7-dihydro-1H-purine-2,6-dione]: the “CYP3A4 activity, %” value at CYP3A4 is “around 75%”. In addition, the “neurotoxicity, cell viability (in words)” value in the data set on SH-SY5Y cells is “high safety profile”. In addition, the “behaviour in the culture medium” value in data set [1] is “precipitated and formed crystals in the culture medium”. In data set [2], the “number of metabolites formed” value is on record as “one metabolite” and the fraction remaining at 2 h was over 90%. Moreover, in data set [3], the “Change in Edema Volume 1 h” value is given as 0.49 ± 0.08 mL; the “inhibition of edema, first hour” value stood at 37.1%; the “Change in Edema Volume 2 h” value is 0.91 ± 0.05 mL; the “inhibition of edema, second hour” value came to 18.7%. In data set [3], the “Change in Edema Volume 3 h” value was determined as 0.92 ± 0.06 mL and the “inhibition of edema, third hour” value came out at 30.8%.

In the case of `C#CCn1c(=O)c2c(nc(NCc3ccccc3Cl)n2C)n(C)c1=O` [compound 19, 8-((2-Chlorobenzyl)amino)-3,7-dimethyl-1-(prop-2-yn-1-yl)-3,7-dihydro-1H-purine-2,6-dione], the “CYP3A4 activity, %” value at CYP3A4 was ~ 20%. In the data set on SH-SY5Y cells, the “neurotoxicity, cell viability (in words)” value is “high safety profile”. For the same compound, the “behaviour in the culture medium” value in data set [1] was “precipitated and formed crystals in the culture medium”. In addition, in data set [2], the “number of metabolites formed” value was “two metabolites” and the share remaining at 2 h is over 95%. Further, in data set [3], the “Change in Edema Volume 1 h” value is recorded as 0.56 ± 0.13 mL; the “inhibition of edema, first hour” value is 28.2%; the “Change in Edema Volume 2 h” value was found to be 0.72 ± 0.09 mL; the “inhibition of edema, second hour” value is given as 35.7%. Also, in data set [3], the “Change in Edema Volume 3 h” value stood at 1.10 ± 0.21 mL and the “inhibition of edema, third hour” value is given as 17.3%.

The values above are taken from publication PMC10531311, “Anti-Inflammatory Activities of 8-Benzylaminoxanthines Showing High Adenosine A2A and Dual A1/A2A Receptor Affinity” (International Journal of Molecular Sciences, 2023).
